Results as given in US9056865B2, “Pyridine-2-derivatives as smoothened receptor modulators” (Pfizer Inc., priority 2010, dated 2015).

How the values were obtained:
[1] = biological target: human Smo (Homo sapiens (Human), UniProt Q99835); experiment: Smo radioligand competition binding assay
Outline: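 Membranes from HEK293 cells expressing surface human Smo 181-781 (40 μg protein/well) incubated 2 h at room temperature with test compound and tritiated Smo antagonist (3 nM), pH 7.5 Tris buffer; filtration and scintillation counting. Non-specific binding defined with 30 μM cold antagonist; IC50 from four-parameter sigmoidal fit.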

[2] = test system: Gli1; experiment: Down regulation of Smo targeted gene Gli1 in the brain, primary medulloblastoma model; format: in vivo; conditions: Ptch1+/-p53-/- medulloblastoma mice, 30 mg/kg once daily for 4 days oral gavage, 6 hours post last dose
Description: Down Regulation of Smo Targeted Gene Gli1 in the Brain by A-116
In this study, 6-week-old Ptch1+/−p53−/− primary medulloblastoma mice (n=3 per group) were treated with 30 mg/kg of A-116 or vehicle (0.5% methylcellulose (MC)) once daily for 4 days by oral gavage. On day 4, at 6 hours post last dose, mice were euthanized and tumor bearing cerebella were removed. Total RNA was extracted from the tumor tissue together with the cerebella using the RNeasy Mini Kit (Qiagen). Subsequently, cDNA was synthesized from the RNA using High Capacity cDNA Reverse Transcription Kit (Applied Biosystems) according to the protocol provided by the vendor. Quantitative real-time PCR analysis of Smo targeted gene Gli1 expression level was performed using RT-PCR ABI Prism 7900 sequence detection system (Applied Biosystems).

[3] = rat plasma protein binding; format: in vitro ADME; conditions: previously determined

human Smo, sequence (Q99835 181-787): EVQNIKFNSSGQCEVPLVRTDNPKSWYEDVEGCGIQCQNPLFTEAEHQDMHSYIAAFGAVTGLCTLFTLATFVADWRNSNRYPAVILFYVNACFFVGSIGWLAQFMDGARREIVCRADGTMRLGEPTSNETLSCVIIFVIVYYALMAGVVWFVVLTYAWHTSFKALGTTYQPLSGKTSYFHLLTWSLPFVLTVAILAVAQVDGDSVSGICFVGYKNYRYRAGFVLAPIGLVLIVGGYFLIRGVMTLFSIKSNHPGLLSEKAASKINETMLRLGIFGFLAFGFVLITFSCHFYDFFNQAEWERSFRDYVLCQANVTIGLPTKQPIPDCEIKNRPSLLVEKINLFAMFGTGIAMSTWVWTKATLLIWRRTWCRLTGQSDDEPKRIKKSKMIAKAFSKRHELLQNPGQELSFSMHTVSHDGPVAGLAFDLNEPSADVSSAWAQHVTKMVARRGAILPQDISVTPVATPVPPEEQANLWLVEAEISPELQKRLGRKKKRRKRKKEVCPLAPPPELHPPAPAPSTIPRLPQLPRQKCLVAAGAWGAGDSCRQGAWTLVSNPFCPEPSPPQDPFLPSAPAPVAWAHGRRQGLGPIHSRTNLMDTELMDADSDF

In the case of Cc1cnc(-c2cc(N3CCN(C(=O)CCS(C)(=O)=O)CC3)ncc2Cl)c(C)c1 [Example A-116, 5′-chloro-3,5-dimethyl-2′-{4-[3-(methylsulfonyl)propanoyl]piperazin-1-yl}-2,4′-bipyridine], the IC50 [1] is reported as 6.8 nM, the inhibition at 0.05 µM ([1]; 0.05 μM test compound, read-out: Smo % inh. @ 0.05 μM) is reported as 101% and the “Gli1 level, % of vehicle control” value [2] is reported as 4.5±0.4%. The fraction unbound [3] was 0.067.
